Experimental findings from patent publication US20110294810A1, “SUBSTITUTED (PYRIDYL)-AZINYLAMINE DERIVATIVES AS PLANT PROTECTION AGENTS” (priority 2008, published 2011) are described below.

The first data set in a line: Measurement of logP values by HPLC on reversed phase columns (EEC directive 79/831 Annex V.A8). Type of data set: physicochemical. Particulars: HPLC on reversed phase columns; usually LC-MS at pH 2.7 with 0.1% formic acid in water and acetonitrile, linear gradient 10% to 95% acetonitrile.
In turn, `CN1CCC(N(C)Cc2cc(-c3ccnc(Nc4cccc(Cl)c4)n3)ccn2)CC1` [Compound A63] registered a log p of 1.07.

The same data set, now with this note: pH 2.7.
Turning to `CC(C)CCSCc1cc(-c2ccnc(Nc3cccc(Cl)c3)n2)ccn1` [Example A86], the log p amounted to 4.97. Same read-out and setting: then `CC(C)C(=O)OCc1cc(-c2ccnc(Nc3cccc(Cl)c3)n2)ccn1` [Compound A31], with 3.89. Same read-out and setting: then `COCC(=O)NC(C)c1cc(-c2ccnc(Nc3cccc(Cl)c3)n2)ccn1` (stereo not shown) [Compound A80], with 2.68; and `CN(Cc1cc(-c2ccnc(Nc3cccc(Cl)c3)n2)ccn1)C1CCCC1` [Compound A51], with 1.95. Still for that read-out and setting: then `C=CCSCc1cc(-c2ccnc(Nc3cccc(Cl)c3)n2)ccn1` [Example A75], with 3.8.

Regarding `CCCC(=O)NCc1cc(-c2ccnc(Nc3cccc(Cl)c3)n2)ccn1` [Compound A5], the log p is 2.51.

Turning to `CC(C)OC(=O)NCc1cc(-c2ncnc(Nc3cccc(Cl)c3)n2)ccn1` [Compound C3], the log p worked out at 2.94. Take `CC(=O)OCc1cc(-c2ccnc(N(C(C)=O)c3cccc(Cl)c3)n2)ccn1` [Compound A26]: the log p came to 2.35. On the same count and under the same terms, then `C=C(C)C(=O)OCc1cc(-c2ccnc(Nc3cccc(Cl)c3)n2)ccn1` [Compound A87], with 3.78; and `CCOCCNCc1cc(-c2ccnc(Nc3cccc(Cl)c3)n2)ccn1` [Example A95], with 1.84; and `Clc1cccc(Nc2nccc(-c3ccnc(CSCc4ccccc4)c3)n2)c1` [Compound A83], with 4.39. Still for that read-out and setting: then `CCOC(=O)CCSCc1cc(-c2ccnc(Nc3cccc(Cl)c3)n2)ccn1` [Example A85], with 3.67; and `CN1CCN(Cc2cc(-c3ccnc(Nc4cccc(Cl)c4)n3)ccn2)CC1` [Example A54], with 1.45; and `CCCCCSCc1cc(-c2ccnc(Nc3cccc(Cl)c3)n2)ccn1` [Example A74], with 5.08. Still for that read-out and setting: then `CN(C)Cc1cc(-c2ccnc(Nc3cccc(Cl)c3)n2)ccn1` [Compound A41], with 1.57; and `COCC1CCCN1Cc1cc(-c2ccnc(Nc3cccc(Cl)c3)n2)ccn1` (stereo not shown) [Example A62], with 1.82. Turning to `C#CCCCC(=O)OCc1cc(-c2ccnc(Nc3cccc(Cl)c3)n2)ccn1` [Compound A33], the log p came out at 3.73.

As for `CC(NC(=O)C1CC1)c1cc(-c2ccnc(N(C(=O)C3CC3)c3cccc(Cl)c3)n2)ccn1` (stereo not shown) [Compound A92], the log p was determined as 2.49. Still for that read-out and setting: then `CCC(=O)OCc1cc(-c2ccnc(Nc3cccc(Cl)c3)n2)ccn1` [Example A22], with 3.44; and `CC(C)CC(=O)OCc1cc(-c2ccnc(N(C(=O)CC(C)C)c3cccc(Cl)c3)n2)ccn1` [Example A27], with 4.56; and `CC(=O)OCc1cc(-c2ccnc(Nc3cccc(Cl)c3)n2)ccn1` [Compound A18], with 3.02.

Consider `COCC(C)C(=O)OC(C)c1cc(-c2ccnc(Nc3cccc(Cl)c3)n2)ccn1` (stereo not shown) [Compound A99], for which the log p is on record as 3.83. Same read-out and setting: then `O=C(NCc1cc(-c2ccnc(Nc3cccc(Cl)c3)n2)ccn1)C1CCCC1` [Example A3], with 2.88; and `COCCC(=O)OCc1cc(-c2ccnc(Nc3cccc(Cl)c3)n2)ccn1` [Example A34], with 3.13.

The data set is the same for the next values; noted with them: reversed phase HPLC column; HPLC on reversed phase columns; usual method: LC-MS at pH 2.7, 0.1% formic acid in water / acetonitrile, linear gradient 10% to 95% acetonitrile; read-out: logP.
Take `CCC(C)CNC(C)c1cc(-c2ccnc(Nc3cccc(Cl)c3)n2)ccn1` (stereo not shown) [Compound A97, N-(3-chlorophenyl)-4-(2-{1-[(2-methylbutyl)amino]ethyl}pyridin-4-yl)pyrimidin-2-amine]: the chromatographic logP was determined as 2.13.

Staying with this data set, now noted: reversed phase HPLC column; HPLC on reversed phase columns; usually LC-MS at pH 2.7 with 0.1% formic acid in water and acetonitrile, linear gradient 10% to 95% acetonitrile; read-out: log p.
In the case of `COCc1cc(-c2ccnc(N(C)c3cccc(Cl)c3)n2)ccn1` [Compound A25, N-(3-chlorophenyl)-4-[2-(methoxymethyl)pyridin-4-yl]-N-methylpyrimidin-2-amine], the chromatographic logP was determined as 3.02.

The same data set, now with this note: reversed phase HPLC column; LC-MS at pH 7.8, 0.001 molar ammonium hydrogen carbonate in water, gradient 10% to 95% acetonitrile; read-out: log p [c].
Regarding `NCc1cc(-c2ncnc(Nc3cccc(Cl)c3)n2)ccn1` [Compound C6, 4-[2-(aminomethyl)pyridin-4-yl]-N-(3-chlorophenyl)-1,3,5-triazin-2-amine], the chromatographic logP came to 1.74.
